Source: publication PMC7438494 (Communications Biology, 2020)
Several values for one entry are separate records, joined by “and”; a condition that tells them apart may be missing. Equal entries are not always repeated. Where two headings read alike, the source gives them in different places.

Target: human ATP synthase (Homo sapiens, UniProt P00846+P05496)
Experiment: biochemical
Assay type: biochemical
Conditions: for cyanide sensitive ATP produced, nmol/min/mg / cyanide sensitive ATP produced, pmol/min/mg: 60 min
[1] = BDQ 5e-6 uM, […], frozen human mito, BDQ in DMSO
[2] = BDQ 5e-6 uM, cyanide sensitive, frozen human mito, BDQ in DMSO
[3] = BDQ 5e-5 uM, […], frozen human mito, BDQ in DMSO
[4] = BDQ 5e-5 uM, cyanide sensitive, frozen human mito, BDQ in DMSO
[5] = BDQ 0.0005 uM, […], frozen human mito, BDQ in DMSO
[6] = BDQ 0.0005 uM, cyanide sensitive, frozen human mito, BDQ in DMSO
[7] = BDQ 0.0005 uM, cyanide sensitive, human
[8] = BDQ 0.005 uM, […], frozen human mito, BDQ in DMSO
[9] = BDQ 0.005 uM, cyanide sensitive, frozen human mito, BDQ in DMSO
[10] = BDQ 0.005 uM, cyanide sensitive, human
[11] = BDQ 0.05 uM, cyanide sensitive, human
[12] = BDQ 0.1 uM, […], frozen human mito, BDQ in DMSO
[13] = BDQ 0.1 uM, cyanide sensitive, frozen human mito, BDQ in DMSO
[14] = BDQ 0.1 uM, cyanide sensitive, human
[15] = BDQ 0.2 uM, […], frozen human mito, BDQ in DMSO
[16] = BDQ 0.2 uM, cyanide sensitive, frozen human mito, BDQ in DMSO
[17] = BDQ 0.2 uM, cyanide sensitive, human
[18] = BDQ 0.5 uM, […], frozen human mito, BDQ in DMSO
[19] = BDQ 0.5 uM, cyanide sensitive, frozen human mito, BDQ in DMSO

## COc1nc2ccc(Br)cc2cc1[C@@H](c1ccccc1)[C@@](O)(CCN(C)C)c1cccc2ccccc12 [BDQ, Bedaquiline]
  ATP synthesis: 7.2 nmol/min/mg
  inhibition at 0.85 µM: 46%
[1]
  % activity, cyanide sensitive: 78.2096%
  % inhibition, cyanide sensitive: 21.7904%
  ATP produced, nmol/min/mg: 6.85 nmol/min/mg
  ATP produced, pmol/min/mg: 6850.84 pmol/min/mg
[2]
  cyanide sensitive ATP produced, nmol/min/mg: 5.63 nmol/min/mg
  cyanide sensitive ATP produced, pmol/min/mg: 5632.76 pmol/min/mg
BDQ 5e-6 uM, cyanide sensitive, human
  Cyanide sensitive ATP synthesis: 6.1 nmol/min/mg and 8.3 nmol/min/mg
[3]
  % activity, cyanide sensitive: 74.3127%
  % inhibition, cyanide sensitive: 25.6873%
  ATP produced, nmol/min/mg: 6.57 nmol/min/mg
  ATP produced, pmol/min/mg: 6570.19 pmol/min/mg
[4]
  cyanide sensitive ATP produced, nmol/min/mg: 5.35 nmol/min/mg
  cyanide sensitive ATP produced, pmol/min/mg: 5352.10 pmol/min/mg
BDQ 5e-5 uM, cyanide sensitive, human
  Cyanide sensitive ATP synthesis: 5.6 nmol/min/mg and 8.1 nmol/min/mg
[5]
  % activity: 84.5005%
  % inhibition: 15.4995%
  ATP produced, nmol/min/mg: 7.12 nmol/min/mg
  ATP produced, pmol/min/mg: 7115.12 pmol/min/mg
BDQ 0.0005 uM, […], frozen human mito, BDQ in DMSO, read-out: % activity
  activity at 0.0005 µM: 84.5%
BDQ 0.0005 uM, […], frozen human mito, BDQ in DMSO, read-out: % activity, cyanide sensitive
  activity at 0.0005 µM: 81.9%
BDQ 0.0005 uM, […], frozen human mito, BDQ in DMSO, read-out: % inhibition
  inhibition at 0.0005 µM: 15.5%
BDQ 0.0005 uM, […], frozen human mito, BDQ in DMSO, read-out: % inhibition, cyanide sensitive
  inhibition at 0.0005 µM: 18.1%
[6]
  cyanide sensitive ATP produced, nmol/min/mg: 5.90 nmol/min/mg
  cyanide sensitive ATP produced, pmol/min/mg: 5897.03 pmol/min/mg
[7]
  Cyanide sensitive ATP synthesis: 7.7 nmol/min/mg and 4.7 nmol/min/mg and 7.8 nmol/min/mg
  cyanide sensitive % activity: 71.1%
BDQ 0.0005 uM, cyanide sensitive, human, read-out: cyanide sensitive % activity
  activity at 0.0005 µM: 81.5%
BDQ 0.0005 uM, cyanide sensitive, human, read-out: cyanide sensitive % inhibition
  inhibition at 0.0005 µM: 18.5%
[8]
  % activity: 99.3902%
  % inhibition: 0.6098%
  ATP produced, nmol/min/mg: 8.37 nmol/min/mg
  ATP produced, pmol/min/mg: 8368.87 pmol/min/mg
BDQ 0.005 uM, […], frozen human mito, BDQ in DMSO, read-out: % activity
  activity at 0.005 µM: 99.4%
BDQ 0.005 uM, […], frozen human mito, BDQ in DMSO, read-out: % activity, cyanide sensitive
  activity at 0.005 µM: 99.3%
BDQ 0.005 uM, […], frozen human mito, BDQ in DMSO, read-out: % inhibition
  inhibition at 0.005 µM: 0.6%
BDQ 0.005 uM, […], frozen human mito, BDQ in DMSO, read-out: % inhibition, cyanide sensitive
  inhibition at 0.005 µM: 0.713%
[9]
  cyanide sensitive ATP produced, nmol/min/mg: 7.15 nmol/min/mg
  cyanide sensitive ATP produced, pmol/min/mg: 7150.78 pmol/min/mg
[10]
  Cyanide sensitive ATP synthesis: 8.3 nmol/min/mg and 4.6 nmol/min/mg and 7.9 nmol/min/mg
  cyanide sensitive % activity: 72.3%
BDQ 0.005 uM, cyanide sensitive, human, read-out: cyanide sensitive % activity
  activity at 0.005 µM: 88.5%
[11]
  Cyanide sensitive ATP synthesis: 6.8 nmol/min/mg and 4.7 nmol/min/mg and 3.8 nmol/min/mg
  cyanide sensitive % activity: 71.8% and 64.1% and 43.8%
  cyanide sensitive % inhibition: 28.2% and 35.9% and 56.2%
[12]
  % activity: 65.6953%
  % inhibition: 34.3047%
  ATP produced, nmol/min/mg: 5.53 nmol/min/mg
  ATP produced, pmol/min/mg: 5531.68 pmol/min/mg
BDQ 0.1 uM, […], frozen human mito, BDQ in DMSO, read-out: % activity
  activity at 0.1 µM: 65.7%
BDQ 0.1 uM, […], frozen human mito, BDQ in DMSO, read-out: % activity, cyanide sensitive
  activity at 0.1 µM: 59.9%
BDQ 0.1 uM, […], frozen human mito, BDQ in DMSO, read-out: % inhibition
  inhibition at 0.1 µM: 34.3%
BDQ 0.1 uM, […], frozen human mito, BDQ in DMSO, read-out: % inhibition, cyanide sensitive
  inhibition at 0.1 µM: 40.1%
[13]
  cyanide sensitive ATP produced, nmol/min/mg: 4.31 nmol/min/mg
  cyanide sensitive ATP produced, pmol/min/mg: 4313.60 pmol/min/mg
[14]
  Cyanide sensitive ATP synthesis: 8.1 nmol/min/mg and 6.1 nmol/min/mg and 5.4 nmol/min/mg and 6.3 nmol/min/mg and 7.4 nmol/min/mg
  cyanide sensitive % activity: 86.0% and 84.3% and 62.0% and 71.2% and 67.2%
[15]
  % activity: 69.7127%
  % inhibition: 30.2873%
  ATP produced, nmol/min/mg: 5.87 nmol/min/mg
  ATP produced, pmol/min/mg: 5869.95 pmol/min/mg
BDQ 0.2 uM, […], frozen human mito, BDQ in DMSO, read-out: % activity
  activity at 0.2 µM: 69.7%
BDQ 0.2 uM, […], frozen human mito, BDQ in DMSO, read-out: % activity, cyanide sensitive
  activity at 0.2 µM: 64.6%
BDQ 0.2 uM, […], frozen human mito, BDQ in DMSO, read-out: % inhibition
  inhibition at 0.2 µM: 30.3%
BDQ 0.2 uM, […], frozen human mito, BDQ in DMSO, read-out: % inhibition, cyanide sensitive
  inhibition at 0.2 µM: 35.4%
[16]
  cyanide sensitive ATP produced, nmol/min/mg: 4.65 nmol/min/mg
  cyanide sensitive ATP produced, pmol/min/mg: 4651.87 pmol/min/mg
[17]
  Cyanide sensitive ATP synthesis: 5.6 nmol/min/mg and 4.0 nmol/min/mg and 5.2 nmol/min/mg and 4.4 nmol/min/mg and 5.1 nmol/min/mg
  cyanide sensitive % activity: 55.4% and 59.9% and 49.8% and 46.9%
  cyanide sensitive % inhibition: 44.6% and 40.1% and 50.2% and 53.1%
BDQ 0.2 uM, cyanide sensitive, human, read-out: cyanide sensitive % activity
  activity at 0.2 µM: 59.5%
BDQ 0.2 uM, cyanide sensitive, human, read-out: cyanide sensitive % inhibition
  inhibition at 0.2 µM: 40.5%
[18]
  % activity: 36.7347%
  % inhibition: 63.2653%
  ATP produced, nmol/min/mg: 3.09 nmol/min/mg
  ATP produced, pmol/min/mg: 3093.14 pmol/min/mg
BDQ 0.5 uM, […], frozen human mito, BDQ in DMSO, read-out: % activity
  activity at 0.5 µM: 36.7%
BDQ 0.5 uM, […], frozen human mito, BDQ in DMSO, read-out: % activity, cyanide sensitive
  activity at 0.5 µM: 26%
BDQ 0.5 uM, […], frozen human mito, BDQ in DMSO, read-out: % inhibition
  inhibition at 0.5 µM: 63.3%
BDQ 0.5 uM, […], frozen human mito, BDQ in DMSO, read-out: % inhibition, cyanide sensitive
  inhibition at 0.5 µM: 74%
[19]
  cyanide sensitive ATP produced, nmol/min/mg: 1.88 nmol/min/mg
  cyanide sensitive ATP produced, pmol/min/mg: 1875.05 pmol/min/mg
